Measurements taken from BindingDB's records for doi:10.7270/Q2PR7TCX (The Scripps Research Institute Molecular Screening Center, 2007).
Structures can show the parent of a compound that is named as a salt.

target: Steroidogenic factor 1 (Homo sapiens, UniProt Q13285); test: SF-1 inhibitors in Gal4 reporter counter-screen, dose response, counter-screen for RORA inhibitor project, cell-based, CHO-K1, Gal4-SF-1 LBD, luciferase luminescence (AID 611); conditions: not given
Sequence (Q13285 whole entry, the tested form may be a part): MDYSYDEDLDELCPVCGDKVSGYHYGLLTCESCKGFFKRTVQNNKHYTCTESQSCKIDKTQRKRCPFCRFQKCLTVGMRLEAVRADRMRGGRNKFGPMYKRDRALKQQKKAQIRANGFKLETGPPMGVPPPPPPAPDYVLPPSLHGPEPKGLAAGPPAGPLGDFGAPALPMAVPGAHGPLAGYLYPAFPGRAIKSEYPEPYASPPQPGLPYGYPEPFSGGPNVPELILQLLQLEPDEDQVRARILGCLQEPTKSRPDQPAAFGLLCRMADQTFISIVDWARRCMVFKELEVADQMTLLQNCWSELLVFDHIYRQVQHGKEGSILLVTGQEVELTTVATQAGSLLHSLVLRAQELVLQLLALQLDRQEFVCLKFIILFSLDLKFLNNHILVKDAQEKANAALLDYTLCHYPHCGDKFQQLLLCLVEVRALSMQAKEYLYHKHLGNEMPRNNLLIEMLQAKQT

**Q.** `CCC(NC(=O)Nc1nnc(C(F)(F)F)s1)(C(F)(F)F)C(F)(F)F` was tested. Which IC50 did it give?
**A.** 2.74 µM

**Q.** Which IC50 does the source give for `O=S1(=O)C=C(Sc2nnc(-c3ccccc3)o2)c2ccccc21` here?
**A.** 6.04 µM

**Q.** For `CCc1ccc(-c2nnn(CCC(=O)OC)n2)cc1`, which IC50 is on record?
**A.** 6.34 µM

**Q.** With `Cn1ncnc2c(=O)n(C)c(=O)nc1-2` as the compound, how does the IC50 read?
**A.** 0.633 µM

**Q.** Which IC50 does the source give for `O=C1c2ccccc2C(=O)C1c1ccc2ccccc2n1` here?
**A.** 4.75 µM

**Q.** With `CC(C)OCCCNc1ncnc2c1[nH]c1ccc(F)cc12` as the compound, how does the IC50 read?
**A.** 6.34 µM

**Q.** How did the IC50 turn out when `CCCCOC(=O)c1[nH]c2c(c1C)C(=O)CC(c1cc(OC)c(OC)c(OC)c1)C2` (centres undefined) was run?
**A.** 6.24 µM

**Q.** With `[H][C@@]12C[N@@](CCc3c([nH]c4ccccc34)[C@@](C(=O)OC)(c3cc4c(cc3OC)N(C=O)[C@]3([H])[C@]45CC[N@@]4CC=C[C@@](CC)([C@@H](OC(C)=O)[C@]3(O)C(=O)OC)[C@]45[H])C1)C[C@](O)(CC)C2` as the compound, how does the IC50 read?
**A.** 2.11 µM

**Q.** With `Clc1ccc(-c2nnc(NC3=NCCCCC3)o2)cc1` as the compound, how does the IC50 read?
**A.** > 3.67 µM

**Q.** `Cc1ccc(N=C2Nc3ccccc3CS2)cc1` was tested. Which IC50 did it give?
**A.** > 11 µM

**Q.** For `CC(NC(=O)Nc1nnc(C(F)(F)F)s1)(C(F)(F)F)C(F)(F)F` [1-(1,1,1,3,3,3-hexafluoro-2-methylpropan-2-yl)-3-[5-(trifluoromethyl)-1,3,4-thiadiazol-2-yl]urea], which IC50 is on record?
**A.** 5.6 µM

**Q.** Which IC50 does the source give for `O=C(CSc1nnc(COc2cccc3cccnc23)o1)N1CCc2ccccc21` [1-(2,3-Dihydro-indol-1-yl)-2-[5-(quinolin-8-yloxymethyl)-[1,3,4]oxadiazol-2-ylsulfanyl]-ethanone] here?
**A.** 3.97 µM

**Q.** For `CCCS(=O)(=O)c1nnnn1-c1cccc(OC)c1` [1-(3-methoxyphenyl)-5-(propylsulfonyl)-1H-tetrazole], which IC50 is on record?
**A.** 7.63 µM

**Q.** With `Cc1ccc(-c2nsc3c(N4CCC(C(N)=O)CC4)ncnc23)cc1` [1-(3-p-Tolyl-isothiazolo[4,5-d]pyrimidin-7-yl)-piperidine-4-carboxylic acid amide] as the compound, how does the IC50 read?
**A.** 1.53 µM

**Q.** With `CC(C)NCC(O)Cn1c2c(c3ccccc31)CCc1c-2cnn1-c1ccccc1` (centres undefined) [1-(3-phenyl-4,5-dihydropyrazolo[4,3-a]carbazol-10-yl)-3-(propan-2-ylamino)-2-propanol] as the compound, how does the IC50 read?
**A.** 8.75 µM

**Q.** Which IC50 does the source give for `CCOc1ccc(S(=O)(=O)n2cnc3cc(C)c(C)cc32)cc1` [1-(4-Ethoxy-benzenesulfonyl)-5,6-dimethyl-1H-benzoimidazole] here?
**A.** > 11 µM

**Q.** For `Cc1cccc(NC(=O)Nc2ccc(C#N)cc2)n1` [1-(4-cyanophenyl)-3-(6-methyl-2-pyridinyl)urea], which IC50 is on record?
**A.** 6.32 µM

**Q.** How did the IC50 turn out when `COc1ccc(O)c(C(=O)CC(=O)c2ccc(F)cc2)c1` [1-(4-fluorophenyl)-3-(2-hydroxy-5-methoxy-phenyl)propane-1,3-dione] was run?
**A.** > 11 µM

**Q.** With `COc1ccc(-n2ncc3c(N4CCCCC4)ncnc32)cc1` [1-(4-methoxyphenyl)-4-(1-piperidinyl)pyrazolo[3,4-d]pyrimidine] as the compound, how does the IC50 read?
**A.** 2 µM

**Q.** For `COc1cc(CSc2nnnn2-c2ccc(C)cc2)cc(OC)c1OC` [1-(4-methylphenyl)-5-[(3,4,5-trimethoxybenzyl)thio]-1H-tetrazole], which IC50 is on record?
**A.** 4.52 µM

**Q.** For `CCn1nc(-c2ccccc2)nc2c(=O)n(C)c(=O)nc1-2` [1-Ethyl-6-methyl-3-phenyl-1H-pyrimido[5,4-e][1,2,4]triazine-5,7-dione], which IC50 is on record?
**A.** 3.72 µM

**Q.** How did the IC50 turn out when `COCCn1c(C)cc(C(=O)CSc2nnc(C)s2)c1C` [1-[1-(2-methoxyethyl)-2,5-dimethyl-1H-pyrrol-3-yl]-2-[(5-methyl-1,3,4-thiadiazol-2-yl)thio]ethanone] was run?
**A.** 3.46 µM

**Q.** `CCOC(=O)C1CCN(c2ncnc3c2cnn3-c2ccc(Cl)cc2)CC1` [1-[1-(4-chlorophenyl)-4-pyrazolo[3,4-d]pyrimidinyl]-4-piperidinecarboxylic acid ethyl ester] was tested. Which IC50 did it give?
**A.** 5.75 µM

**Q.** How did the IC50 turn out when `Cc1csc(SCC(=O)c2cc(C)n(Cc3cccs3)c2C)n1` [1-[2,5-dimethyl-1-(2-thenyl)pyrrol-3-yl]-2-[(4-methylthiazol-2-yl)thio]ethanone] was run?
**A.** 9.88 µM

**Q.** `Cc1cc(-n2c(C)cc(C(=O)CSc3ncnc4ccccc34)c2C)no1` [1-[2,5-dimethyl-1-(5-methyl-1,2-oxazol-3-yl)pyrrol-3-yl]-2-quinazolin-4-ylsulfanyl-ethanone] was tested. Which IC50 did it give?
**A.** 6.03 µM

**Q.** `Cc1ccc(-c2csc3ncnc(Sc4nnc(CN5CCCCCC5=O)o4)c23)cc1` [1-[[5-[5-(4-methylphenyl)thieno[2,3-d]pyrimidin-4-yl]sulfanyl-1,3,4-oxadiazol-2-yl]methyl]azepan-2-one] was tested. Which IC50 did it give?
**A.** 7.12 µM

**Q.** `Nc1nnnn1N=C/C(Br)=C/c1ccccc1` [1-[[(Z)-2-bromanyl-3-phenyl-prop-2-enylidene]amino]-1,2,3,4-tetrazol-5-amine] was tested. Which IC50 did it give?
**A.** 4.19 µM

**Q.** Which IC50 does the source give for `C=CS(=O)(=O)c1ccc(Oc2ccc(S(=O)(=O)C=C)cc2)cc1` [1-ethenylsulfonyl-4-(4-ethenylsulfonylphenoxy)benzene] here?
**A.** 5.29 µM

**Q.** How did the IC50 turn out when `CCn1nc(-c2cccs2)nc2c(=O)n(C)c(=O)nc1-2` [1-ethyl-6-methyl-3-thiophen-2-yl-pyrimido[5,4-e][1,2,4]triazine-5,7-dione] was run?
**A.** 2.19 µM

**Q.** How did the IC50 turn out when `c1ccc(-n2ncc3c(N4CCCCC4)ncnc32)cc1` [1-phenyl-4-(1-piperidinyl)pyrazolo[3,4-d]pyrimidine] was run?
**A.** 4.47 µM

**Q.** How did the IC50 turn out when `Cc1ccc(-c2cn3nc(C)c(C)nc3n2)cc1` [2,3-dimethyl-6-(4-methylphenyl)imidazo[1,2-b][1,2,4]triazine] was run?
**A.** 4.13 µM

**Q.** For `COc1ccc(C(=O)Nc2ccc(C)cn2)c(OC)c1` [2,4-dimethoxy-N-(5-methylpyridin-2-yl)benzamide], which IC50 is on record?
**A.** > 1.22 µM

**Q.** Which IC50 does the source give for `O=C(c1ccccc1)C(CCC(CN1CCOCC1)C(=O)c1ccccc1)CN1CCOCC1` (centres undefined) [2,5-bis(4-morpholinylmethyl)-1,6-diphenylhexane-1,6-dione;hydrochloride] here?
**A.** 18 µM

**Q.** With `Cc1oc2cc3c(C(=O)OCCN(C)C)c(C)oc3cc2c1C(=O)OCCN(C)C` [2,6-Dimethyl-benzo[1,2-b;4,5-b']difuran-3,7-dicarboxylic acid bis-(2-dimethylamino-ethyl) ester] as the compound, how does the IC50 read?
**A.** 0.892 µM

**Q.** Which IC50 does the source give for `c1ccc(-c2cccc(-c3ccccn3)n2)nc1` [2,6-bis(2-pyridinyl)pyridine] here?
**A.** 2.81 µM

**Q.** For `O=NC1c2cc(S(=O)(=O)N3CCCCC3)ccc2-c2ccc(S(=O)(=O)N3CCCCC3)cc21` [2,7-Bis-(piperidine-1-sulfonyl)-fluoren-9-one oxime], which IC50 is on record?
**A.** 2.14 µM

**Q.** For `O=c1c2ccccc2cnn1-c1nc2ccccc2s1` [2-(1,3-benzothiazol-2-yl)-1-phthalazinone], which IC50 is on record?
**A.** 0.728 µM

**Q.** How did the IC50 turn out when `c1ccc2nc(-c3nc4ccccc4o3)ccc2c1` [2-(1,3-benzoxazol-2-yl)quinoline] was run?
**A.** 5.39 µM

**Q.** For `COc1ccc(OC)c(NC(=O)CSc2nnnn2-c2ccc3c(c2)OCO3)c1` [2-(1-Benzo[1,3]dioxol-5-yl-1H-tetrazol-5-ylsulfanyl)-N-(2,5-dimethoxy-phenyl)-acetamide], which IC50 is on record?
**A.** 2.69 µM

**Q.** Which IC50 does the source give for `CCn1c(C)nc2cc(-c3nc4n(n3)Cc3ccccc3-4)ccc21` [2-(1-ethyl-2-methyl-5-benzimidazolyl)-5H-[1,2,4]triazolo[5,1-a]isoindole] here?
**A.** > 0.00503 µM

**Q.** Which IC50 does the source give for `CCN1C=CC(=C2C(=O)c3ccccc3C2=O)C=C1` [2-(1-ethyl-4-pyridinylidene)indene-1,3-dione] here?
**A.** 1.34 µM

**Q.** With `c1c2c(cc3sc(N4CCCCC4)nc13)OCCO2` [2-(1-piperidinyl)-6,7-dihydro-[1,4]dioxino[2,3-f][1,3]benzothiazole] as the compound, how does the IC50 read?
**A.** > 3.67 µM

**Q.** `CCCN1C=CC(=C2C(=O)c3ccccc3C2=O)C=C1` [2-(1-propyl-4-pyridinylidene)indene-1,3-dione] was tested. Which IC50 did it give?
**A.** 0.431 µM

**Q.** `Cc1cnc(NC(=O)COc2ccccc2Cl)s1` [2-(2-chloranylphenoxy)-N-(5-methyl-1,3-thiazol-2-yl)ethanamide] was tested. Which IC50 did it give?
**A.** 5.63 µM

**Q.** Which IC50 does the source give for `Cn1c(-c2ccco2)nc2cc3ccccc3cc21` [2-(2-furanyl)-3-methylbenzo[f]benzimidazole] here?
**A.** > 3.67 µM

**Q.** How did the IC50 turn out when `c1ccc2c(c1)CCN(c1nc3cc4c(cc3s1)OCCO4)C2` [2-(3,4-dihydro-1H-isoquinolin-2-yl)-6,7-dihydro-[1,4]dioxino[2,3-f][1,3]benzothiazole] was run?
**A.** 4.35 µM

**Q.** With `COc1ccc(CC(=O)Nc2cccc(-c3nnc(-c4cccc(C)c4)o3)c2)cc1OC` [2-(3,4-dimethoxyphenyl)-N-[3-[5-(3-methylphenyl)-1,3,4-oxadiazol-2-yl]phenyl]acetamide] as the compound, how does the IC50 read?
**A.** 5.9 µM

**Q.** With `Nc1cccc(-c2nc3ccc(N)cc3s2)c1` [2-(3-Amino-phenyl)-benzothiazol-6-ylamine] as the compound, how does the IC50 read?
**A.** > 3.67 µM

**Q.** With `O=C(CSC1=NCCS1)Nc1ccnc2ccccc12` [2-(4,5-dihydro-1,3-thiazol-2-ylsulfanyl)-N-quinolin-4-yl-ethanamide] as the compound, how does the IC50 read?
**A.** 5.95 µM

**Q.** For `Cc1nnc(Sc2nc(Sc3nnc(C)s3)nc(N3CCN(C)CC3)n2)s1` [2-(4-Methyl-piperazin-1-yl)-4,6-bis-(5-methyl-[1,3,4]thiadiazol-2-ylsulfanyl)-[1,3,5]triazine], which IC50 is on record?
**A.** 3.55 µM

same assay, conditions: inactive by the depositor's call

**Q.** For `COc1ccc2[nH]c(=O)c3c(c2c1)OC(C)(C)C=C3`, which IC50 is on record?
**A.** 16.5 µM

**Q.** How did the IC50 turn out when `Cc1ccc2[nH]c3c(N4CCN(Cc5ccc6c(c5)OCO6)CC4)ncnc3c2c1` was run?
**A.** 10.2 µM

**Q.** How did the IC50 turn out when `CCCNc1nc2c(c(=O)n(C)c(=O)n2C)n1Cc1cccc(C)c1` [1,3-Dimethyl-7-(3-methyl-benzyl)-8-propylamino-3,7-dihydro-purine-2,6-dione] was run?
**A.** 21.5 µM

**Q.** How did the IC50 turn out when `Cc1cc(C)n2nc(SCC(=O)c3cc(C)n(-c4cc(C)on4)c3C)nc2n1` [1-[2,5-dimethyl-1-(5-methyl-1,2-oxazol-3-yl)pyrrol-3-yl]-2-[(5,7-dimethyl-[1,2,4]triazolo[1,5-a]pyrimidin-2-yl)sulfanyl]ethanone] was run?
**A.** 16.8 µM

**Q.** With `CC(=O)c1ccc(N2CCN(c3ccc(C(F)(F)F)cn3)CC2)cc1` [1-[4-[4-[5-(trifluoromethyl)-2-pyridinyl]-1-piperazinyl]phenyl]ethanone] as the compound, how does the IC50 read?
**A.** 11.4 µM

**Q.** With `CC(=O)N1CCc2cc(S(=O)(=O)NCCC3=CCCCC3)ccc21` [1-acetyl-N-(2-cyclohex-1-en-1-ylethyl)indoline-5-sulfonamide] as the compound, how does the IC50 read?
**A.** 17.6 µM

**Q.** How did the IC50 turn out when `COc1cc2c(cc1OC)C(C)N(C(=O)c1cc3ccccc3o1)CC2` (centres undefined) [1-benzofuran-2-yl-(6,7-dimethoxy-1-methyl-3,4-dihydro-1H-isoquinolin-2-yl)methanone] was run?
**A.** 19 µM

**Q.** For `O=C1c2ccccc2S(=O)(=O)N1Cc1nc2ccccc2s1` [2-(1,3-benzothiazol-2-ylmethyl)-1,1-bis(oxidanylidene)-1,2-benzothiazol-3-one], which IC50 is on record?
**A.** 10.6 µM

**Q.** `CC1(C)CC(=O)C2=C(C1)Oc1nc3ccccc3cc1C2C(C#N)C#N` (centres undefined) [2-(1-keto-3,3-dimethyl-4,12-dihydro-2H-chromeno[2,3-b]quinolin-12-yl)malononitrile] was tested. Which IC50 did it give?
**A.** 12.2 µM
